From patent US10513694B2, “Thienopyrrole compounds and uses thereof” (PROMEGA CORPORATION, priority 2015, dated 2019)
Entries after “also recorded” stand apart in the source; their conditions may differ.

Legend:
[1] = tested on: HEK293 cells; test: Cell viability and toxicity (CellTiter-Glo); type: cell-based; conditions: at concentrations greater than 2 μg/mL
Method: HEK293 cells were plated at 20 k cells/well and exposed to vehicle (DMSO), digitonin (positive control for cell death), or JRW-0344 for 10 min/30 min/120 min/240 min/or 18 hrs. CellTiter-Glo (Promega Corp.) was added, and luminescence measured.

[2] = target: NANOLUC® enzyme (Oplophorus gracilirostris, UniProt Q9GV45, A31E/A60N/A81I/F95D/I117V/K70R/L54V/L99Q/M102K/N193R/P142E/Q151K/Q38R/Q45L/V71I/Y165I); test: Inhibitor IC50 determination (NANOLUC enzyme, furimazine); type: biochemical; conditions: IC50 (uM), 0.4 ng/ml NANOLUC enzyme, final furimazine 10 uM (at Km)
[3] = target: T1, purified Nluc enzyme (Oplophorus gracilirostris, UniProt Q9GV45, A31E/A60N/A81I/F95D/I117V/K70R/L54V/L99Q/M102K/N193R/P142E/Q151K/Q38R/Q45L/V71I/Y165I); type: biochemical; conditions: titration up to 100 μM final; RT 2 hrs; pro-substrate PBI-4442 + DTT
T1 construct: purchased Promega Corporation
Method: In a Corning 3570 assay plate, purified Nluc enzyme (Promega Corporation), 20 mM DTT, and an Nluc pro-substrate (PBI-4442, which is described in US Patent Publication No. 2013/0130289), which is converted to an Nluc substrate upon reduction with DTT, was added. Compound titrations of JRW-0004, JRW-0013, JRW-0006, JRW-0042, JRW-0138, and JRW-0147 were then made (1:2 serial dilution in PBS, 11 points plus no inhibitor control, starting at 200 μM; 100 μM final concentration in reaction). Compound titrations were added in equal volume to the wells of the assay plate. The reactions were incubated at RT for 2 hrs, and luminescence was measured on Tecan M1000 Pro plate reader. Half-maximal inhibitor (thienopyrrole compound) concentrations (IC50s) were determined using GraphPad Prism 6.03.

[4] = tested on: firefly luciferase, e.g., ULTRAGLO® luciferase; test: Specificity of inhibition: firefly luciferase activity; type: biochemical; conditions: 1 μM luciferin in Luciferase Detection Reagent; RT 2 hrs
Method: The following example describes the specificity of disclosed thienopyrrole compounds, JRW-0004, JRW-0013, JRW-0006, JRW-0042, JRW-0138, and JRW-0147, to inhibit Nluc luciferase activity versus firefly luciferase activity, e.g., ULTRAGLO® luciferase. In a Corning 3570 assay plate, a solution containing 1 μM luciferin in Luciferase Detection Reagent (Promega Corporation V865/859) was added to the assay wells. An equal volume of titrations the thienopyrrole compounds, JRW-0004, JRW-0013, JRW-0006, JRW-0042, JRW-0138, and JRW-0147 were then added to the wells. The reactions were incubated at RT for 2 hrs, and luminescence was measured on Tecan M1000 Pro plate reader.

[5] = tested on: Nluc enzyme; test: Multiplex RealTime-Glo / Caspase-Glo 3/7 in MCF7 cells; type: cell-based
Method: (§1) A) In a Corning 3570 assay plate, MCF7 cells were plated at 1,000 cells/well in 20 μL of cell culture media (EMEM supplemented with 0.01 mg/mL human recombinant insulin and 10% fetal bovine serum) and incubated in overnight. 10 μL of 4× REALTIME-GLO™ MT Cell Viability reagents (Promega Corporation) in media or 10 μL media only was added to the cells. 10 μL of 40 μM staurosporine in media or 10 μL media only (control) was added to the cells. The cells were incubated, and caspase activation monitored at 5.5 hrs post-reagent addition. To monitor caspase activation, 40 μL CASPASE-GLO® 3/7 Assay Reagent (Promega Corporation), either on its own (Caspase) or with 200 μM of JRW-0004, JRW-0013, or JRW-0042, was added. Reactions were incubated at RT, and luminescence was measured at 1 hr 10 min post-reagent addition on Tecan M1000 Pro plate reader.
(§2) When comparing the signal generated from the CASPASE-GLO® reagent in media only versus the signal generated in media containing REALTIME-GLO™ reagent, the signal is higher in the multiplex reaction.

[6] = target: Nluc (Oplophorus gracilirostris, UniProt Q9GV45, A31E/A60N/A81I/F95D/I117V/K70R/L54V/L99Q/M102K/N193R/P142E/Q151K/Q38R/Q45L/V71I/Y165I); test: as above; type: cell-based; design: purchased Promega Corporation
Method: as §1, §2

[7] = tested on: Beta-2 Adrenergic Receptor-Nluc (B2AR-Nluc) fusion protein; test: Cell permeability, B2AR-Nluc in HEK293 or HeLa cells -/+ digitonin; type: cell-based
Method: HEK293 or HeLa cells were transiently transfected with Beta-2 Adrenergic Receptor-Nluc (B2AR-Nluc) fusion protein to anchor and orient Nluc cytosolically. 24 hrs post-transfection, cells were treated with −/+50 μg/mL digitonin to emulate a live and lytic scenario, respectively. Then, intact cells and permeabilized cells were exposed to a compound response curve of thienopyrrole compound up to 2 hrs. 10 μM furimazine (Promega Corp.) was added, and luminescence was measured. If a thienopyrrole compound (inhibitor) was permeable, the dose-response curves for both live and permeabilized cells overlapped. However, if a thienopyrrole compound was impermeable, the EC50 was right-shifted in the live cells relative to the permeabilized cells.

[8] = tested on: Nluc-HALOTAG labeled with NANOBRET 618 ligand; test: Inhibition of extracellular BRET; type: cell-based; conditions: HEK293 Nluc-HDAC6; 10 ng/mL extracellular Nluc-HALOTAG/NANOBRET 618; 2 hrs
Method: HEK293 were transiently transfected with an Nluc-HDAC6 fusion protein to orient Nluc-HDAC6 inside the cell. 24 hrs post-transfection, cells were treated 10 ng/mL purified Nluc-HALOTAG labeled with NANOBRET 618 ligand to simulate spurious extracellular BRET. Cells were then exposed to a compound response curve of the thienopyrrole compounds, JRW-0013, JRW-0051, JRW-0147, and JRW-0187, for 2 hrs. 10 μM furimazine was then added, and BRET ratio 610/450 nm was measured.

[9] = target: T2, purified Nluc (extracellular); Nluc-HALOTAG fusion protein (intracellular) (Oplophorus gracilirostris, UniProt Q9GV45, A31E/A60N/A81I/F95D/I117V/K70R/L54V/L99Q/M102K/N193R/P142E/Q151K/Q38R/Q45L/V71I/Y165I); test: Inhibition of extracellular luciferase activity and enhancement of intracellular BRET; type: cell-based; conditions: HEK293 Nluc-HALOTAG + NANOBRET 618; 10 ng/mL extracellular purified Nluc; 2 hrs
T2 construct: expressed in transfected cells; host or cells: HEK293 (Nluc-HaloTag); purified Nluc added from outside
Method: HEK293 were transiently transfected with Nluc-HALOTAG fusion protein to orient Nluc-HALOTAG inside the cell. 24 hrs post-transfection, cells were labeled with NANOBRET 618 ligand to simulate specific intracellular BRET. Cells were then treated 10 ng/mL purified Nluc to simulate spurious extracellular luminescence. Cells were exposed to a compound response curve of the thienopyrrole compounds, JRW-0013, JRW-0051, JRW-0147, and JRW-0187, for 2 hrs. 10 μM furimazine was added, and the BRET ratio 610/450 nm was measured.

[10] = tested on: B2AR-Nluc or Nluc-B2AR fusion protein; test: Cell permeability with bioluminescent imaging (HeLa, B2AR-Nluc / Nluc-B2AR); type: cell-based; conditions: 30 μM compound, 10 μM furimazine
Method: HeLa cells were transiently transfected with Beta-2 Adrenergic Receptor-Nluc (B2AR-Nluc; C-Terminus Nluc) or Nluc-Beta-2 Adrenergic Receptor (Nluc-B2AR; N-terminus Nluc) fusion protein to anchor and orient Nluc intracellularly or extracellularly, respectively. 24 hrs post-transfection, cells were treated with −/+30 μM of a thienopyrrole compound, JRW-0147, JRW-0051, and JRW-0138. 10 μM furimazine was added, and luminescence was detected by imaging on the Olympus LV200.

[11] = 10 μM Stauro vs Control, 200 μM compound
[12] = CASPASE-GLO 3/7 reagent with 200 μM compound, 1 hr 10 min

Sequence of NANOLUC® enzyme (Q9GV45 28-196 with tags or gaps with the stated changes limits assumed): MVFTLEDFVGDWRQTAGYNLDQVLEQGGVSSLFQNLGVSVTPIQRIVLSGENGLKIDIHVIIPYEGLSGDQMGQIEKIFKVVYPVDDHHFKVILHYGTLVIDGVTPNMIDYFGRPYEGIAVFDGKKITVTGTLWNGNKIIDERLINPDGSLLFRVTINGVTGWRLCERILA
Sequence of Nluc (Q9GV45 28-196 with tags or gaps with the stated changes limits assumed): as above
T1 sequence (Q9GV45 28-196 with tags or gaps with the stated changes limits assumed): as above
T2 sequence (Q9GV45 28-196 with tags or gaps with the stated changes limits assumed): as above

SMILES | IC50 [2] [µM] | Inhibition of purified Nluc enzyme (FIG. 2) [3] | Inhibition of firefly luciferase activity (FIG. 3) [4] | Cell permeability [7] | BRET ratio 610/450 nm across compound dose-response curve (FIGS. 12B-12E) [8] | BRET ratio 610/450 nm across compound dose-response curve (FIGS. 13B-13E) [9] | Permeability and inhibition of extracellular / intracellular Nluc by imaging (FIG. 14) [10] | also measured
C[C@@H]1CC[C@@]2(OC1)O[C@H]1[C@@H](O)[C@H]3[C@@H]4CC[C@H]5C[C@@H](O[C@@H]6O[C@H](CO)[C@H](O[C@@H]7O[C@H](CO)[C@@H](O)[C@H](O[C@@H]8OC[C@@H](O)[C@H](O)[C@H]8O)[C@H]7O[C@@H]7O[C@H](CO)[C@H](O)[C@H](O[C@@H]8O[C@H](CO)[C@@H](O)[C@H](O)[C@H]8O)[C@H]7O)[C@H](O)[C@H]6O)[C@H](O)C[C@]5(C)[C@H]4CC[C@]3(C)[C@H]1[C@@H]2C [Digitonin, reference compound] | – | – | – | – | – | – | – | Cell death (FIG. 18B) [1]: almost complete death
CCCCNC(=O)[C@H]1CC[C@H](NC(=O)c2cc3sccc3n2CC(=O)N(CC)c2cccc(C)c2)CC1 [JRW-0042, N-(trans-4-(butylcarbamoyl)cyclohexyl)-4-(2-(ethyl(m-tolyl)amino)-2-oxoethyl)-4H-thieno[3,2-b]pyrrole-5-carboxamide] | 0.31 | capable of inhibiting purified Nluc enzyme | do not inhibit firefly luciferase activity; also recorded: did not inhibit the firefly luciferase activity | – | – | – | – | Fold Cont, Media only [5, 11]: 5.81; Avg (luminescence), Media only, 10 μM Stauro [5, 12]: 62280; Avg (luminescence), Media only, Control [5, 12]: 10718; Fold Cont, Media containing RealTime-Glo [6, 11]: 5.05; Avg (luminescence), Media containing RealTime-Glo, 10 μM Stauro [6, 12]: 53956; Avg (luminescence), Media containing RealTime-Glo, Control [6, 12]: 10679
CCN(C(=O)Cn1c(C(=O)N[C@H]2CC[C@H](C(=O)NCCCC(=O)O)CC2)cc2sccc21)c1cccc(C)c1 [JRW-0051, 4-(trans-4-(4-(2-(ethyl(m-tolyl)amino)-2-oxoethyl)-4H-thieno[3,2-b]pyrrole-5-carboxamido)cyclohexane-1-carboxamido)butanoic acid] | 0.74 | – | – | cell-impermeable | BRET ratio decreased | intracellular BRET ratio was enhanced | impermeable and inhibited extracellular Nluc and enhanced intracellular Nluc | –
CCCCCCNC(=O)[C@H]1CC[C@H](NC(=O)c2cc3sccc3n2CC(=O)N(CC)c2cccc(C)c2)CC1 [JRW-0138, 4-(2-(ethyl(m-tolyl)amino)-2-oxoethyl)-N-(trans-4-(hexylcarbamoyl)cyclohexyl)-4H-thieno[3,2-b]pyrrole-5-carboxamide] | 0.13 | capable of inhibiting purified Nluc enzyme | do not inhibit firefly luciferase activity; also recorded: did not inhibit the firefly luciferase activity | cell-permeable | – | – | cell permeable and inhibited both intracellular and extracellular Nluc | –
CCN(C(=O)Cn1c(C(=O)N[C@H]2CC[C@H](C(=O)N3CCC(C(=O)O)CC3)CC2)cc2sccc21)c1cccc(C)c1 [JRW-0187, 1-(trans-4-(4-(2-(ethyl(m-tolyl)amino)-2-oxoethyl)-4H-thieno[3,2-b]pyrrole-5-carboxamido)cyclohexane-1-carbonyl)piperidine-4-carboxylic acid] | – | – | – | cell-impermeable | BRET ratio decreased | intracellular BRET ratio was enhanced | – | –
